Source: article PMC9325861, “Mouse precision-cut liver slices as an ex vivo model to study drug-induced cholestasis” (Archives of Toxicology, 2022)
Where a name gives a salt, the structure may show the parent alone.

Legend:
Mrp3 (Abcc3) = assay: qRT-PCR gene expression in mouse PCLS: Mrp3; assay type: cell-based; conditions: 48 h, in the presence and absence of BAs
Method: In short, freshly prepared PCLS were transferred to 12-well plates (Greiner bio-one GmbH, Austria), one slice per well.
Three PCLS incubated under a given condition were pooled in a 1.5-mL Rnase-free test tube, snap-frozen in liquid nitrogen, and stored at – 80 °C until analysis. RNA was isolated using a FavorPrep Tissue Total RNA Mini Kit (Favorgen, Vienna, Austria). Subsequently, the RNA yield was quantified using a NanoDrop One instrument (Thermo Fisher Scientific, Massachusetts, USA). Isolated RNA was reverse-transcribed to cDNA using a cDNA synthesis kit (Reverse Transcription System, Promega, Benelux B.V.). The cDNA samples were subsequently loaded in the thermal cycler with a program set to 22 °C for 10 min, 42 °C for 15 min, and 95 °C for 5 min.
qRT-PCR was used to determine the relative mRNA expression levels for the mouse target genes: Bsep (Abcb11), Mrp2 (Abcc2), Mrp3 (Abcc3), Mrp4 (Abcc4), Ntcp (Slc10a1), Fxr (Nr1h4), Cyp7a1 (Cyp7a1), Collagen type 1a1 (Col1a1), Hsp47 (Serpinh1). Primer sequences of the genes tested are given in Supplementary Table S1. QRT-PCR was performed using, the dye, FastStart Universal SYBR Green Master Mix (Roche Diagnostics Netherlands B.V., Almere, the Netherlands) with the ViiA™ 7 Real-Time PCR System (Applied Biosystems, Bleiswijk, the Netherlands). […] Samples were measured in duplicates. […] Results are expressed as log2(fold change).

mouse Bsep protein = test system: mouse Bsep protein; set-up: method as in Noe et al. [2001]; conditions: ref Noe et al. [2001]; cited from earlier work

SMILES | Mrp3 gene expression (Mrp3 (Abcc3)) | Inhibition of the mouse Bsep protein (mouse Bsep protein)
CN(C)CCCN1c2ccccc2Sc2ccc(Cl)cc21 [CPZ, Chlorpromazine hydrochloride] | reduces | –
COc1ccc(Cl)cc1C(=O)NCCc1ccc(S(=O)(=O)NC(=O)NC2CCCCC2)cc1 [GB, Glibenclamide] | – | competitively inhibit
